This assay deals with interaction between p53 and MDM2 proteins (recombinant GST-tagged MDM2, p53 peptide) (Homo sapiens, UniProt Q00987). The assay is described as follows: HTRF assay of inhibition of the p53-MDM2 interaction (GST-MDM2 / biotinylated p53 peptide). The format is binding. To be noted: bsa: 0.02%. The method, then:
The ability of the compounds to inhibit the interaction between p53 and MDM2 proteins was measured by an HTRF (homogeneous time-resolved fluorescence) assay in which recombinant GST-tagged MDM2 binds to a peptide that resembles the MDM2-interacting region of p53. Binding of GST-MDM2 protein and p53-peptide (biotinylated on its N-terminal end) is registered by the FRET (fluorescence resonance energy transfer) between Europium (Eu)-labeled anti-GST antibody and streptavidin-conjugated Allophycocyanin (APC).
Add 10 uL diluted compounds (1:5 dilution in reaction buffer) to each well, mix by shaking Add 20 uL biotinylated p53 peptide (180 nM working solution) in reaction buffer to each well and mix on shaker. Incubate at 37° C. for 1 h. Add 20 uL streptavidin-APC and Eu-anti-GST antibody mixture (6 nM Eu-anti-GST and 60 nM streptavidin-APC working solution) in TBS buffer with 0.2% BSA, shake at room temperature for 30 minutes and read using a TRF-capable plate reader at
665 and 615 nm (Victor 5, Perkin ElmerWallac), If not specified, the reagents were purchased from Sigma Chemical Co.
(In general: TR-FRET usually uses a lanthanide donor and a delayed reading to cut background.)

interaction between p53 and MDM2 proteins (recombinant GST-tagged MDM2, p53 peptide), sequence (Q00987 whole entry): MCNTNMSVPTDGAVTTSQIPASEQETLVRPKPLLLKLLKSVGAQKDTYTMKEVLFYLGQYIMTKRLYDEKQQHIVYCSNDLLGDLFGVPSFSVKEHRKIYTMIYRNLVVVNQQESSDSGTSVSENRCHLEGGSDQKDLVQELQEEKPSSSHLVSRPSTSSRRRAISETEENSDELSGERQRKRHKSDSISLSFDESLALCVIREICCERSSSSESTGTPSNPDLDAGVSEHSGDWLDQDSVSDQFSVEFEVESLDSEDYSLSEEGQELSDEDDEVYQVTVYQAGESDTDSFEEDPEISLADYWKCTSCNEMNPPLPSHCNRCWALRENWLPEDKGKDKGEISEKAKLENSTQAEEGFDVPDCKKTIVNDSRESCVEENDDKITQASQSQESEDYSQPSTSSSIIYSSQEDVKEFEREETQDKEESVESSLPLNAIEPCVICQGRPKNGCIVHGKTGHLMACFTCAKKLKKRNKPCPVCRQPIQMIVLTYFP

`COc1cc(N2CN3[C@@H](CC(C)(C)C)[C@](C#N)(c4ccc(Cl)cc4F)[C@@H](c4cccc(Cl)c4F)[C@@H]3C2=O)ccc1C(=O)O` [Example 1, 4-[(5S,6R,7S,7aR)-7-(3-chloro-2-fluoro-phenyl)-6-(4-chloro-2-fluoro-phenyl)-6-cyano-5-(2,2-dimethyl-propyl)-1-oxo-tetrahydro-pyrrolo[1,2-c]imidazol-2-yl]-2-methoxy-benzoic acid]: the IC50 (usually the concentration at which inhibition is half-maximal) was found to be 8 nM. As to `CC(C)(C)C[C@@H]1N2CN(c3ccc(C(=O)O)cc3O)C(=O)[C@H]2[C@H](c2cccc(Cl)c2F)[C@@]1(C#N)c1ccc(Cl)cc1F` [Example 6, 4-[(5S,6R,7S,7aR)-7-(3-chloro-2-fluoro-phenyl)-6-(4-chloro-2-fluoro-phenyl)-6-cyano-5-(2,2-dimethyl-propyl)-1-oxo-tetrahydro-pyrrolo[1,2-c]imidazol-2-yl]-3-hydroxy-benzoic acid], the 50% inhibitory concentration (IC50) amounted to 13 nM.

With `CC(C)(C)C[C@@H]1N2CN(CC(=O)O)C(=O)[C@H]2[C@H](c2cccc(Cl)c2F)[C@@]1(C#N)c1ccc(Cl)cc1F` [Example 4, [(5S,6R,7S,7aR)-7-(3-chloro-2-fluoro-phenyl)-6-(4-chloro-2-fluoro-phenyl)-6-cyano-5-(2,2-dimethyl-propyl)-1-oxo-tetrahydro-pyrrolo[1,2-c]imidazol-2-yl]-acetic acid], the IC50 amounted to 10 nM. For `CC(C)(C)C[C@@H]1N2CN(c3ccc(C(=O)O)c(C(F)(F)F)c3)C(=O)[C@H]2[C@H](c2cccc(Cl)c2F)[C@@]1(C#N)c1ccc(Cl)cc1F` [Example 7, 4-[(5S,6R,7S,7aR)-7-(3-chloro-2-fluoro-phenyl)-6-(4-chloro-2-fluoro-phenyl)-6-cyano-5-(2,2-dimethyl-propyl)-1-oxo-tetrahydro-pyrrolo[1,2-c]imidazol-2-yl]-2-trifluoromethyl-benzoic acid] the value was 21 nM; for `CC(C)(C)C[C@@H]1N2CN(c3ccc(C(=O)O)cc3)C(=O)[C@H]2[C@H](c2cccc(Cl)c2F)[C@@]1(C#N)c1ccc(Cl)cc1F` [Example 2, 4-[(5S,6R,7S,7aR)-7-(3-chloro-2-fluoro-phenyl)-6-(4-chloro-2-fluoro-phenyl)-6-cyano-5-(2,2-dimethyl-propyl)-1-oxo-tetrahydro-pyrrolo[1,2-c]imidazol-2-yl]-benzoic acid], 8 nM; for `CC(C)(C)C[C@@H]1N2[C@H](CC3CCCCC3)N(c3ccc(C(=O)O)cc3)C(=O)[C@H]2[C@H](c2cccc(Cl)c2F)[C@@]1(C#N)c1ccc(Cl)cc1F` (racemic) [Example 35, rac-4-[(3S,5S,6R,7S,7aR)-7-(3-chloro-2-fluoro-phenyl)-6-(4-chloro-2-fluoro-phenyl)-6-cyano-3-cyclohexylmethyl-5-(2,2-dimethyl-propyl)-1-oxo-tetrahydro-pyrrolo[1,2-c]imidazol-2-yl]-benzoic acid], 15 nM. For the compound `C=CCC[C@@H]1N(c2ccc(C(=O)O)c(OC)c2)C(=O)[C@H]2[C@H](c3cccc(Cl)c3F)[C@@](C#N)(c3ccc(Cl)cc3F)[C@H](CC(C)(C)C)N12` [Example 41, 4-[(3S,5S,6R,7S,7aR)-3-but-3-enyl-7-(3-chloro-2-fluoro-phenyl)-6-(4-chloro-2-fluoro-phenyl)-6-cyano-5-(2,2-dimethyl-propyl)-1-oxo-tetrahydro-pyrrolo[1,2-c]imidazol-2-yl]-2-methoxy-benzoic acid], the concentration for half-maximal inhibition (IC50) came to 9 nM. Then `COc1cc(C(=O)O)ccc1N1CN2[C@@H](CC(C)(C)C)[C@](C#N)(c3ccc(Cl)cc3F)[C@@H](c3cccc(Cl)c3F)[C@@H]2C1=O` [Example 3, 4-[(5S,6R,7S,7aR)-7-(3-chloro-2-fluoro-phenyl)-6-(4-chloro-2-fluoro-phenyl)-6-cyano-5-(2,2-dimethyl-propyl)-1-oxo-tetrahydro-pyrrolo[1,2-c]imidazol-2-yl]-3-methoxy-benzoic acid], with 13 nM.

Source of the values: patent US20120065210A1, “SUBSTITUTED HEXAHYDROPYRROLO[1,2-C]IMIDAZOLONES” (priority 2010, published 2012).
